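Cells were grown in 96-well plates and exposed to each compound for 48 hours at five concentrations; endpoints were interpolated linearly between bracketing concentrations, or set to the highest concentration if not reached. TGI: concentration producing complete growth inhibition.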
Columns and labels:
Assay in all cases: inhibition of tumour cell growth, NCI panel, 48 h
SK-MEL-28 melanoma = test system: SK-MEL-28 melanoma
OVCAR-5 ovarian = test system: OVCAR-5 ovarian
MALME-3M melanoma = test system: MALME-3M melanoma
UACC-257 melanoma = test system: UACC-257 melanoma
IGROV1 ovarian = test system: IGROV1 ovarian
U251 CNS = test system: U251 CNS
KM12 colon = test system: KM12 colon
SF-539 CNS = test system: SF-539 CNS
HCT-116 colon = test system: HCT-116 colon
MDA-MB-435 = test system: MDA-MB-435

Measured: TGI

CC(C)(C)c1cc(C(O)(C(=O)O)C(=O)O)cc(C(C)(C)C)c1O
> 100 µM: all assays above

COCn1c2ccc(OC(C)=O)cc2c2c(=O)oc(C)nc21
> 100 µM: all assays above

COc1ccc(-c2oc3ccc(C)cc3c(=O)c2O)cc1
> 100 µM: all assays above

Source: PubChem BioAssay (NCI)
